Results: patent publication US20140303092A1 (CHIMERIX, INC., priority 2011, published 2014)
“And” between values parts separate entries of the source, which are not always exact repeats. Equal values may be shown once.

System: CMV
Test: Study HDP-CDV-201: prevention or control of CMV infection in R+ HSCT recipients (efficacy)
Assay type: in vivo, human (adult allogeneic HSCT recipients)
Conditions: for Time to CMV DNAemia (≧100 copies/mL), Mean / Number of Subjects who had CMV DNAemia (≧100 copies/mL) by the end of study / Time to CMV DNAemia (≧100 copies/mL), Median: CMV DNA negative at baseline; for Difference (HDP-CDV minus placebo) in rate of CMV DNAemia ≧1,000 copies/mL / Rate of CMV DNAemia ≧1,000 copies/mL during the treatment period: CMV modified strata: positive; for Discontinuation: Emergence of CMV disease / Discontinuation: Initiation of alternate CMV therapy: active treatment period
Experimental: The clinical study of the current invention (HDP-CDV-201) was a 9-11 week randomized, placebo-controlled, double-blind, dose-escalation study (40 mg weekly [QW], 100 mg QW, 200 mg QW, 200 mg twice-weekly [BIW], and 100 mg BIW) of HDP-CDV for the prevention of CMV infection post-HCT. Treatment was initiated at the time of engraftment and continued until Week 13 post-HCT. HDP-CDV, at various doses, was active and well tolerated in the prevention CMV infection or disease.
Clinical Studies of HDP-CDV were performed and described in detail in the following Examples. For example, HDP-CDV-201 is a placebo-controlled, dose-escalating trial in HSCT CMV (R+) recipients, evaluating the ability of HDP-CDV to prevent or control CMV infection was carried out. Five cohorts were established in which participants or subjects received either placebo or the HDP-CDV orally, in doses ranging from 40 mg weekly (QW) to 200 mg twice weekly (BIW). Subjects who were post-HSCT were enrolled at the time of engraftment and randomized to HDP-CDV or placebo (3 to 1 ratio) and received blinded therapy until approximately 100 day post-transplantation. HDP-CDV doses were 40 mg QW, 100 mg QW, 200 mg QW, 200 mg BIW and 100 mg BIW. Escalation to the next dose was decided by the data monitoring committee after review of the safety data from the previous Cohort. Subjects who developed CMV disease or CMV infection requiring pre-emptive therapy with local standard of care were discontinued from blinded therapy and followed for 4 weeks. Subjects who completed treatment with blinded therapy were followed for 8 weeks post-therapy.
The primary endpoint was defined as the incidence of CMV disease at any time during treatment or CMV DNAemia≧200 copies/mL at the end of treatment. All subjects who received at least one dose of drug/placebo and had at least one efficacy evaluation post baseline were included in the primary analysis, regardless of their CMV DNAemia status (negative or positive) at baseline (mITT population). Results for the pooled HDP-CDV Cohorts and for each Cohort separately were analyzed versus that for pooled placebo.
The primary efficacy measure for this study was treatment failure, defined as the occurrence of CMV infection, defined as CMV DNAemia>200 copies/mL at the End of Treatment or diagnosis of CMV disease at any time during the treatment period. For the analysis, the following definitions apply:
For subjects who completed the treatment phase of the study, the End of Treatment was defined as the latest assessment from date of the last dose of study drug and up to 7 days for QW dosing, or the date of the last dose of study drug and up to 4 days for BIW dosing. For subjects who discontinued during the treatment phase of the study, the End of Treatment was defined as the date of the last dose of study drug.
The time to event was defined as the period between FDD and date of first occurrence of the event of interest (inclusive). The events included onset of CMV DNAemia, onset of CMV disease, and discontinuation because of excluded anti-CMV medications. Time to event/onset was derived as (the event/onset date—FDD)+1.
As detailed in the Statistical Analysis Plan, a modified CMV stratum was defined prior to conducting the statistical analysis based upon polymerase chain reaction (PCR) results from the central laboratory. If any positive CMV DNA value in plasma was collected before the first dose of study drug (including Screening, Pre-dose, (combined Screening/Pre-dose), CMV for stratification, and FDD), then the subject was placed into the modified CMV positive (≧100 copies/mL) stratum, otherwise the subject was in the modified CMV negative stratum. […]

[1] = 200 mg BIW/QW, modified CMV negative stratum
[2] = 200 mg BIW, CMV modified strata: negative
[3] = 200 mg BIW, modified CMV negative stratum
[4] = 200 mg QW, CMV modified strata: negative

Compound: CCCCCCCCCCCCCCCCOCCCOP(=O)(O)COC(CO)Cn1ccc(N)nc1=O (stereo not drawn) [HDP-CDV]
- Time to CMV DNAemia (≧100 copies/mL), Mean (100 mg QW, treatment period, censored values not included): 38.8 days
- Number of Subjects who had CMV DNAemia (≧100 copies/mL) by the end of study (100 mg QW, whole study period): 8
- Time to CMV DNAemia (≧100 copies/mL), Mean (100 mg QW, whole study period): 53.4 days
- Time to CMV DNAemia (≧100 copies/mL), Median (100 mg QW, whole study period): 38.5 days
- % CMV Event Rate: Incidence of CMV DNAemia >100 copies/mL During Treatment (Fisher analysis, ref 14.3.3.2.1) [1]: 4 (18.2%) subjects (%)
- % CMV Event Rate: Incidence of CMV DNAemia ≧1,000 copies/mL at any time during treatment [1]: 0 subjects (%)
- Difference (HDP-CDV minus placebo) in infection rate [2]: −16.2%
- Difference (HDP-CDV minus placebo) in rate of CMV DNAemia ≧1,000 copies/ml [2]: −31.9%
- Rate of CMV DNAemia ≧1,000 copies/ml during the treatment period [2]: 0%
- Rate of CMV Disease or End of Treatment CMV Infection [2]: 13.6%
- Difference (HDP-CDV minus placebo) in rate of CMV DNAemia ≧1,000 copies/mL (200 mg BIW): −58.3%
- Rate of CMV DNAemia ≧1,000 copies/mL during the treatment period (200 mg BIW): 25%
- Rate of CMV Disease or End of Treatment CMV Infection (200 mg BIW, aGVHD randomization strata: negative): 24.1%
- Difference (HDP-CDV minus placebo) in infection rate (200 mg BIW, aGVHD strata: negative): −7.9%
- Discontinuation: Emergence of CMV disease (200 mg BIW): 0 Subject n (%)
- Discontinuation: Initiation of alternate CMV therapy (200 mg BIW): 5 (16.7%) Subject n (%)
- Difference (HDP-CDV minus placebo) in rate of CMV DNAemia ≧1000 copies/mL (200 mg BIW, mITT): −35.7%
- Difference (HDP-CDV minus placebo) in rate of CMV disease or end of treatment CMV infection (200 mg BIW, mITT): −14.0%
- Subjects Receiving Antiviral Therapy and/or had CMV disease (200 mg BIW, mITT): 5 (16.7%) subjects (%)
- Subjects without a CMV event (200 mg BIW, mITT): 25 (83.3%) subjects (%)
- Time to Antiviral Therapy, Median (200 mg BIW, mITT): 15.0 days
- Rate of CMV Disease or End of Treatment CMV Infection (≧200 copies/ml) (200 mg BIW, mITT, missing=infection): 23% and 23.3%
- Rate of CMV DNAemia ≧1000 copies/mL during the treatment period (200 mg BIW, mITT, post hoc): 7% and 6.7%
- Time to Antiviral Therapy, Mean (200 mg BIW, mITT, censored values not included): 21.6 days
- Subjects Who Had CMV-related Event (CMV disease, CMV DNAemia ≧1,000 c/mL or initiation of anti-CMV treatment) [3]: 3 (13.6%) subjects (%)
- Subjects without a CMV-related event [3]: 20 (86.4%) subjects (%)
- Developed CMV DNAemia (≧100 copies/mL) during the treatment period (200 mg BIW, plasma CMV DNA negative at baseline, mITT): 4 (17.4%) N(%)
- Time to CMV DNAemia (≧100 copies/mL), Median (200 mg BIW, treatment period): 25.5 days
- Time to CMV DNAemia (≧100 copies/mL), Mean (200 mg BIW, treatment period, censored values not included): 24.8 days
- Median Survival Time to CMV DNAemia (Kaplan-Meier) (200 mg BIW, whole study period): 130 days
- Number of Subjects who had CMV DNAemia (≧100 copies/mL) by the end of study (200 mg BIW, whole study period): 9
- Time to CMV DNAemia (≧100 copies/mL), Mean (200 mg BIW, whole study period): 49.0 days
- Time to CMV DNAemia (≧100 copies/mL), Median (200 mg BIW, whole study period): 42.0 days
- Difference (HDP-CDV minus placebo) in infection rate [4]: −9.1%
- Difference (HDP-CDV minus placebo) in rate of CMV DNAemia ≧1,000 copies/ml [4]: −25.0%
- Rate of CMV DNAemia ≧1,000 copies/ml during the treatment period [4]: 6.9%
- Rate of CMV Disease or End of Treatment CMV Infection [4]: 20.7%
- Difference (HDP-CDV minus placebo) in rate of CMV DNAemia ≧1,000 copies/mL (200 mg QW): −33.3%
- Rate of CMV DNAemia ≧1,000 copies/mL during the treatment period (200 mg QW): 50.0%
- Rate of CMV Disease or End of Treatment CMV Infection (200 mg QW, aGVHD randomization strata: negative): 30.8%
- Difference (HDP-CDV minus placebo) in infection rate (200 mg QW, aGVHD strata: negative): −1.3%
- Discontinuation: Emergence of CMV disease (200 mg QW): 0 Subject n (%)
- Discontinuation: Initiation of alternate CMV therapy (200 mg QW): 7 (17.9%) Subject n (%)
- Difference (HDP-CDV minus placebo) in rate of CMV DNAemia ≧1000 copies/mL (200 mg QW, mITT): −24.4%
- Difference (HDP-CDV minus placebo) in rate of CMV disease or end of treatment CMV infection (200 mg QW, mITT): −6.5%
